Counter-ions that a name gives are not always drawn. Like-named read-outs stand apart in the source and are kept apart here.
How the values were obtained:
[1] = system: carrageenin-induced pedal edema; test: inhibition of carrageenin-induced pedal edema in rats; assay type: in vivo, rats (male Wistar); conditions: Rattus norvegicus
Procedure: The anti-inflammatory activity of a number of representative compounds of the invention was determined by measuring inhibition of carrageenin-induced pedal edema in rats. The procedure used was a modification of the method of Winter et al., Proc. Soc. Exptl. […] The device used for measurement of the paw volume was an adaptation of the water displacement procedure described by Adamkiewicz et al., Can. J. Biochem. Physiol. […] The compounds were studied for their effectiveness in inhibiting the edema caused by the intraplantar injection of 0.05 ml. of a sterile 1.0% solution of carrageenin. […] The compounds were administered orally one hour prior to the injection of the phlogistic substance (carrageenin) into the left hind paw of the rats. At peak swelling time (3 hours), the volume of edema was calculated by differential paw volumes.

gastric secretion = test: anti-secretory activity, pylorus-ligated fasting rats (Shay rat procedure); assay type: in vivo; conditions: for Anti-Secretory Activity (% Reduction of gastric secretion, ml./100 gm.): 50 mg./kg., fasting rats, 4 hours after pylorus ligation, subcutaneous (footnote), intraperitoneal; for anti-secretory activity rather than ulcerogenic properties (in words): rat, in vivo
Procedure: The anti-secretory properties of certain compounds of the invention was determined using the following procedure. The stomachs of fasting rats were ligated at the pylorus (Shay rat procedure) immediately followed by an intraperitoneal injection of 50 mg./kg. of each compound tested. Four hours later the animals were sacrificed, the stomachs removed and the total volume of fluid was measured.
*% Reduction of gastric secretion (ml./100 gm.) after subcutaneous
administration to fasting rats at 50 mg./kg.

[2] = U.S. Pat. No. 3,354,164; cited from earlier work
[3] = oral, one hour before carrageenin, edema at 3 hours, dose which reduced edema formation by 25% or more in 50% of the animals, read-out: Anti-Inflammatory Activity (ED50)
[4] = po, 3 h, read-out: Anti-Inflammatory Activity (ED50), known antiinflammatory agents
[5] = po, 3 h, typical ED50 values from the same test, read-out: Anti-Inflammatory Activity (ED50), known antiinflammatory agents

| SMILES | ED50 [1, 3] [mg/kg] | further results |
| --- | --- | --- |
| COc1ccc2ccn3c(C)nnc3c2c1 [3-methyl-9-methoxy-s-triazolo-[3,4-a]-isoquinoline] | 115 | – |
| Cl.Cl.Clc1cccc2c1ccn1c(CN3CCOCC3)nnc21 [7-Chloro-3-morpholinomethyl-s-triazolo-[3,4-a]-isoquinoline (Dihydrochloride)] | ~160 | – |
| CC(=O)Oc1ccccc1C(=O)O [Aspirin, reference compound] | – | ED50 [1, 4]: 224 mg/kg |
| FC(F)(F)c1nnc2c3cc4c(cc3ccn12)OCO4 [3-Trifluoromethyl-8,9-methylenedioxy-s-triazolo-[3,4-a]-isoquinoline] | 80 | – |
| C[C@@H]1C[C@H]2[C@@H]3CCC4=CC(=O)C=C[C@]4(C)[C@@]3(F)[C@@H](O)C[C@]2(C)[C@@]1(O)C(=O)CO [Dexamethasone, reference compound] | – | ED50 [1, 4]: 0.18 mg/kg |
| Cl.c1c2c(cc3c1OCO3)-c1nncn1CC2 [5,6-Dihydro-8,9-methylenedioxy-s-triazolo-[3,4-a]-isoquinoline, Hydrochloride] | ~160 | – |
| Cc1ccc2ccn3c(C(F)(F)F)nnc3c2c1 [3-Trifluoromethyl-9-methyl-s-triazolo-[3,4-a]-isoquinoline] | ~160 | Anti-Secretory Activity (% Reduction of gastric secretion, ml./100 gm.) (gastric secretion): 22%; anti-secretory activity rather than ulcerogenic properties (in words) (gastric secretion): exhibit anti-secretory activity rather than the ulcerogenic properties |
| COc1ccc2c(ccn3c(C)nnc23)c1 [3-Methyl-8-methoxy-s-triazolo-[3,4-a]-isoquinoline] | 135 | – |
| FC(F)(F)c1nnc2c3cc(Cl)ccc3ccn12 [3-Trifluoromethyl-9-chloro-s-triazolo-[3,4-a]-isoquinoline] | ~160 | – |
| CCN(CC)CCNc1nnc2c3ccccc3ccn12 [3-(N,N-diethylaminoethylamino)-s-triazolo-[3,4-a]-isoquinoline] | 172 | Anti-Secretory Activity (% Reduction of gastric secretion, ml./100 gm.) (gastric secretion): 49%; anti-secretory activity rather than ulcerogenic properties (in words) (gastric secretion): exhibit anti-secretory activity rather than the ulcerogenic properties |
| COc1ccc2c(c1)c(CC(=O)O)c(C)n2C(=O)c1ccc(Cl)cc1 [Indomethacin, reference compound] | – | ED50 [1, 4]: 2.4 mg/kg |
| c1cn2cnnc2c2cc3c(cc12)OCO3 [8,9-Methylenedioxy-s-triazolo-[3,4-a]-isoquinoline] | ~24 | Anti-Secretory Activity (% Reduction of gastric secretion, ml./100 gm.) (gastric secretion): 29.5%; anti-secretory activity rather than ulcerogenic properties (in words) (gastric secretion): exhibit anti-secretory activity rather than the ulcerogenic properties |
| O=C(O)c1cn2c(C(F)(F)F)nnc2c2ccccc12 [3-Trifluoromethyl-6-carboxy-s-triazolo-[3,4-a]-isoquinoline,Potassium Salt] | > 160 | – |
| Cc1nnc2c3cccc(Cl)c3ccn12.Cl [3-methyl-7-chloro-s-triazolo-[3,4-a]-isoquinoline hydrochloride] | > 30 | – |
| CC(C)Cc1nnc2c3ccccc3ccn12 [3-isobutyl-s-triazolo-[3,4-a]-isoquinoline] | 130 | Anti-Secretory Activity (% Reduction of gastric secretion, ml./100 gm.) (gastric secretion): 16%; anti-secretory activity rather than ulcerogenic properties (in words) (gastric secretion): exhibit anti-secretory activity rather than the ulcerogenic properties |
| COc1ccc2ccn3c(C(F)(F)F)nnc3c2c1 [3-Trifluoromethyl-9-methoxy-s-triazolo-[3,4-a]-isoquinoline] | 39 | – |
| Br.Cc1nnc2c3cccc(C#N)c3ccn12 [3-methyl-7-cyano-s-triazolo-[3,4-a]-isoquinoline hydrobromide] | < 100 | – |
| COC(=O)c1cn2c(C(F)(F)F)nnc2c2ccccc12 [3-Trifluoromethyl-6-carbomethoxy-s-triazolo-[3,4-a]-isoquinoline] | – | Anti-Secretory Activity (% Reduction of gastric secretion, ml./100 gm.) (gastric secretion): 6.4%; anti-secretory activity rather than ulcerogenic properties (in words) (gastric secretion): exhibit anti-secretory activity rather than the ulcerogenic properties |
| CN1CCN(c2nnc3c4ccccc4c(Cl)cn23)CC1 [3-(N-methylpiperazino)-6-chloro-s-triazolo-[3,4-a]-isoquinoline] | > 60 | – |
| COc1ccc2c(c1)-c1nnc(C(F)(F)F)n1CC2.Cl [3-Trifluoromethyl-5,6-dihydro-9-methoxy-s-triazolo-[3,4-a]-isoquinoline Hydrochloride] | 38 | – |
| CC(=O)OCC(=O)[C@@]1(O)CC[C@H]2[C@@H]3CCC4=CC(=O)CC[C@]4(C)[C@H]3[C@@H](O)C[C@@]21C [Hydrocortisone Acetate, reference compound] | – | ED50 [1, 5]: 26 mg/kg |
| CC(=O)OCc1nnc2c3ccccc3ccn12 [3-Acetoxymethyl-s-triazolo-[3,4-a]-isoquinoline] | ~100 | – |
| c1ccc2c(c1)ccn1cnnc21 [s-triazolo-[3,4-a]-isoquinoline] | – | coronary vasodilator activity (in words) [2]: coronary vasodilators |
| CCCCC1C(=O)N(c2ccccc2)N(c2ccccc2)C1=O [Phenylbutazone, reference compound] | – | ED50 [1, 5]: 30 mg/kg |
